Experimental data published in patent US12415799B2, “Indazole-fused cyclic compound” (Zhejiang Yangli Pharmaceutical Technology Co., Ltd., priority 2020, dated 2025).

Columns and labels:
CYP3A4 = CYP3A4 (Homo sapiens (Human), UniProt P08684); experiment: Cytochrome P450 isoenzyme inhibition, human liver microsomes; type: in vitro ADME
Method: Experimental purposes: To test the inhibitory effect of test compound on the activity of human liver microsomal cytochrome P450 isoenzymes (CYP1A2 and CYP3A4) (Corning, Co., Ltd.).
Experimental operation: Firstly, the test compound (10 mM) was subjected to gradient dilution to prepare a working solution (100×final concentration), and the concentration of the working solution was: 5, 1.5, 0.5, 0.15, 0.05, 0.015 and 0.005 mM, respectively, and the working solution of each positive inhibitor of P450 isoenzyme (CYP1A2 and CYP3A4) and its specific substrate mixture (5 in 1) were prepared; and then the human liver microsomes frozen in the −80° C. refrigerator were thawed on ice, and all the human liver microsomes were dissolved, diluted with PB, and a certain concentration of working solution (0.253 mg/mL) was prepared; 20 μL of substrate mixture was added to the reaction plate (20 μL of PB was added to the blank well), while 158 μL of human liver microsomal working solution was added to the reaction plate, and the reaction plate was placed on ice for later use; at this time, 2 μL of various concentrations of the test compound (N=1) and specific inhibitor (N=2) were added to the corresponding well, and the corresponding organic solvent was added to the non-inhibitor (test compound or positive inhibitor) group as a control group sample (a ratio of DMSO:MeOH in the test compound control sample was 1:1, a ratio of DMSO:MeOH in the positive control sample was 1:9); after pre-incubation in a water bath at 37° C. for 10 min, 20 μL of coenzyme factor (NADPH) solution was added to the reaction plate, and incubated in a water bath at 37° C. for 10 min; and 400 μL of cold acetonitrile solution (internal standard was 200 ng/mL tolbutamide and labetalol) was added to terminate the reaction; the reaction plate was placed on a shaker and shaked for 10 minutes; and then centrifuged at 4,000 rpm for 20 minutes; 200 μL of the supernatant was taken and added to 100 μL of water for sample dilution; finally the plate was sealed, shaked and shaked well, for LC/MS/MS detection.

[1] = system: MCF-7 breast cancer cell xenograft; experiment: In vivo efficacy, MCF-7 breast cancer cell xenograft model; design: species or system BALB/c nude mice
Method: The purpose of this experiment was to evaluate the antitumor effect of the compound of the present disclosure on MCF-7 breast cancer cell xenograft BALB/c nude mice (provided by the Experimental Animal Management Department of the Shanghai Institute of Family Planning Sciences, and the number of test animals in each experimental group was 5) model.
Mice were subcutaneously inoculated with 0.36 mg, 60-day slow-release estrogen tablets in the left shoulder three days before inoculation. When the cells were in the logarithmic growth phase, the cells were collected and counted, and the cell concentration was adjusted to 10×10^7 cells/mL, and an equal volume of Matrigel was added to mix evenly and then used for inoculation. Each mouse was subcutaneously inoculated with 0.2 mL of MCF-7 tumor cell suspension (10×10^6) on the right shoulder. On day 9 after tumor cell inoculation, the average tumor volume was 160 mm^3 and the body weight was 22.0 to 23.0 g, which was administered in groups and administered once a day. Tumor volume and weight measurements were performed twice a week after grouping, and tumor proliferation rate (T/C) and tumor growth inhibition rate (TGI) were calculated for the last tumor volume data on the day 21 after grouping, and the antitumor effect of compounds was evaluated by TGI (%) or relative tumor proliferation rate T/C (%). TGI (%), reflecting the tumor growth inhibition rate. TGI (%)=[(1-(average tumor volume at the end of administration of a certain treatment group-average tumor volume at the beginning of administration of this treatment group)/(average tumor volume at the end of treatment in the solvent control group-average tumor volume at the beginning of treatment in this solvent control group)]×100%, relative tumor proliferation rate T/C (%)=TRTV/CRTV×100% (TRTV: average RTV of the treatment group; CRTV: average RTV of the negative control group). The relative tumor volume (RTV) was calculated according to the results of tumor measurement, and the formula was RTV=Vt/V0, wherein V0 was the average tumor volume measured at the time of group administration (i.e., D0), and Vt was the tumor volume at a certain measurement, TRTV and CRTV were taken on the same day.

[2] = In vivo pharmacokinetic study in mice; design: species or system female Balb/c mice
Source text: Experimental purposes: To test the drug concentration in plasma of mice at different times after intravenous and intragastric administration of the test compound by LC/MS/MS using female Balb/c mice as the experimental animals. To study the pharmacokinetics of the test compound in mice in vivo and evaluate their pharmacokinetic characteristics.
Experimental animals: 4 healthy female Balb/c mice were divided into 2 groups according to the principle of similar body weight, with 2 mice in each group in IV group and 2 mice in each group in PO group. Animals were purchased from Shanghai Lingchang Biotechnology Co., Ltd.
Appropriate number of samples were weighed and prepared into 1 mg/mL solution respectively, and the mixture was stirred and ultrasonicated to reach a clear state, and the solvent was 15% HP-β-CD.
Administration: After fasting overnight, IV group was administered intravenously, and the dosage of the test compound was 5 mg/kg; PO group was administered intragastrically, and the dosage of the test compound was 10 mg/kg.
After the female Balb/c mice in the intravenous injection group were given the test compound respectively, 30 μL of blood was collected from the saphenous vein at 0.0833, 0.25, 0.5, 1, 2, 4, 8, and 24 hours, and placed in a commercialized anticoagulant tube added with EDTA-K2 in advance. After intragastric administration of the test compound, 30 μL of blood was collected from the saphenous vein at 0.25, 0.5, 1, 2, 4, 8, 12 and 24 hours, respectively, and placed in a commercialized anticoagulant tube added with EDTA-K2 in advance. After centrifugation (3,200 g, 4° C., 10 minutes), the plasma was collected, transferred to a pre-cooled centrifuge tube, quickly frozen in dry ice, and stored in a refrigerator at −60° C. or lower, until LC-MS/MS analysis. Animals were allowed to eat 4 hours after administration. LC/MS/MS method was used to determine the content of the test compound in the plasma of mice after intravenous and intragastric administration. The linear range of the method was 2.00 to 2000 nM.

[3] = female, Balb/c, mouse, plasma, iv, i.v. 5 mg/kg
[4] = female, Balb/c, mouse, plasma, po, p.o. 10 mg/kg

Chain of CYP3A4 (P08684 whole entry): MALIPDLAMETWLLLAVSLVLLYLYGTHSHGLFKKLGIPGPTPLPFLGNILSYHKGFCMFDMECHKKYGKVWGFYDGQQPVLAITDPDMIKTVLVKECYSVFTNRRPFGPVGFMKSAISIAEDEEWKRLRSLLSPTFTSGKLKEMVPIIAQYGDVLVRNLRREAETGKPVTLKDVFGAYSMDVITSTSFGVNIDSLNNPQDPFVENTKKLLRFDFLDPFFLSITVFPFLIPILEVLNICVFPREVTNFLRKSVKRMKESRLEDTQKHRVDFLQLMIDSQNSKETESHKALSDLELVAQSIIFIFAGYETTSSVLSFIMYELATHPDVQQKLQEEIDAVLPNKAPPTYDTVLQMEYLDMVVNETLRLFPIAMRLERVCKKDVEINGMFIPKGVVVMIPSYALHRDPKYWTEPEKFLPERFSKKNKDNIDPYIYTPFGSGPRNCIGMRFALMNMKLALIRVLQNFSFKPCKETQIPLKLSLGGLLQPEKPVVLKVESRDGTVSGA

Row | IC50 (CYP3A4) | Compound | Tumor volume ([1]; Day 0, 5 mg/kg once a day) | Tumor volume ([1]; Day 4, 5 mg/kg once a day) | Tumor volume ([1]; Day 7, 5 mg/kg once a day) | Tumor volume ([1]; Day 11, 5 mg/kg once a day) | Tumor volume ([1]; Day 14, 5 mg/kg once a day) | Tumor volume ([1]; Day 18, 5 mg/kg once a day) | T/C (%) (Day 21) ([1]; Day 21, 5 mg/kg once a day) | TGI (%) (Day 21) ([1]; Day 21, 5 mg/kg once a day) | Tumor volume ([1]; Day 21, 5 mg/kg once a day) | further results
1 | 47.2 µM | FCCCN1CC(Nc2ccc(C3=C(CC(F)(F)F)CCCc4c3ccc3[nH]nc(F)c43)nc2)C1 [Compound 2] | 161 mm^3 | 169 mm^3 | 182 mm^3 | 186 mm^3 | 163 mm^3 | 133 mm^3 | 12.3% | 106% | 118 mm^3 | AUC(0-t) [2, 3]: 8.47 µM·h; clearance [2, 3]: 18.3 mL/min/kg; half-life [2, 3]: 6.85 h; Vd ([2]; female, Balb/c, mouse, plasma, iv, i.v. 5 mg/kg, read-out: Vdss): 10.6 L/kg; bioavailability ([2]; female, Balb/c, mouse, plasma, oral, p.o. 10 mg/kg vs i.v. 5 mg/kg): 71.8%; AUC(0-t) [2, 4]: 11.7 µM·h; Cmax [2, 4]: 937 nM; half-life [2, 4]: 7.67 h
2 | 25.7 µM | FCCCN1CC[C@H](Nc2cnc(C3=C(CC(F)(F)F)CCCc4c3ccc3[nH]nc(F)c43)cn2)C1 [Compound 11A] | 160 mm^3 | 184 mm^3 | 195 mm^3 | 200 mm^3 | 176 mm^3 | 126 mm^3 | 12.8% | 107% | 112 mm^3 | AUC0-last ([2]; i.v. 5 mg/kg): 5.27 µM·h; Cl ([2]; i.v. 5 mg/kg): 30.2 mL/min/kg; T1/2 ([2]; i.v. 5 mg/kg): 5.16 h; Vdss ([2]; i.v. 5 mg/kg): 11.1 L/kg; AUC0-last ([2]; p.o. 10 mg/kg): 5.856 µM·h; Cmax ([2]; p.o. 10 mg/kg): 779 nM; T1/2 ([2]; p.o. 10 mg/kg): 4.72 h; F % ([2]; p.o. 10 mg/kg vs i.v. 5 mg/kg): 55.4%
